This is an account of results in patent US8791143B2, “Anthranilic diamide derivatives having cyclic side-chains” (priority 2010, dated 2014).

Like-named read-outs stand apart in the source and are kept apart here.

In data set [1] the test system is caterpillars of the armyworm (Spodoptera frugiperda). The data set can be described thus: Spodoptera frugiperda test (SPODFR spray treatment). The data set is classed as in vivo. The conditions noted are these: Spodoptera frugiperda, 168 h, read-out: activity in % (caterpillars killed).
Data set [2] has as its system larvae of the mustard beetle (Phaedon cochleariae). The experiment in a line: Phaedon test (PHAECO spray treatment). The settings on record: Phaedon cochleariae, 168 h, read-out: activity in % (beetle larvae killed).
Data set [3] is described as follows: log P by HPLC on reversed-phase columns (EEC Directive 79/831 Annex V.A8). Format: physicochemical.
[4] abbreviates: application rate 100 g/ha, after 7 days.
Setting [5] is: reversed-phase C18 HPLC column, pH 2.7, HPLC reversed-phase C18, acidic range pH 2.7 (HCOOH), only or first value of the cell, read-out: log P.

Turning to `Cc1cc(C#N)cc(C(=O)NCc2ccc(OC(F)F)cc2)c1NC(=O)c1cc(Cn2nnc(C(F)F)n2)nn1-c1ncccc1Cl` [Example 165], the pest or weed control at 100 g/ha in data set [1] (setting [4]) and in data set [2] was 100% each time. The chromatographic logP in data set [3] (setting [5]) worked out at 3.04.

As to `Cc1cc(Cl)cc(C(=O)NCc2ccccc2)c1NC(=O)c1cc(Cn2nnc(C(F)(F)F)n2)nn1-c1ncccc1Cl` [Example 81], the pest or weed control at 100 g/ha in data set [1] and in data set [2] was 100% throughout. The molecule also displayed a chromatographic logP in data set [3] (pH 2.7, log P) of 3.77.

With `Cc1cc(C#N)cc(C(=O)NC2CCS(=O)(=O)C2)c1NC(=O)c1cc(Cn2nnc(C(F)(F)F)n2)nn1-c1c(F)cccc1F` (stereo not drawn) [Example 52], the pest or weed control at 100 g/ha in data set [1] (setting [4]) and in data set [2] was 100% each time. For the same molecule, the chromatographic logP in data set [3] (setting [5]) was determined as 2.75.

In the case of `Cc1cc(Cl)cc(C(=O)NC(C)c2ccc(C(F)(F)F)cc2)c1NC(=O)c1cc(Cn2nnc(C(F)(F)F)n2)nn1-c1ncccc1Cl` (stereo not drawn) [Example 121], the pest or weed control at 100 g/ha in data set [1] (setting [4]) and in data set [2] was 100% each time. In addition, in data set [3] (setting [5]), the chromatographic logP amounted to 4.32.

Turning to `Cc1ccc(Cl)c(C(=O)NCc2cccc(Cl)c2)c1NC(=O)c1cc(Cn2nnc(C(F)(F)F)n2)nn1-c1ncccc1Cl` [Example 197], the pest or weed control at 100 g/ha in data set [1] and in data set [2] was 100% throughout. The chromatographic logP in data set [3] (pH 2.7, log P) stood at 3.74.

With `Cc1cc(Cl)cc(C(=O)NCc2ccc(F)c(F)c2F)c1NC(=O)c1cc(Cn2nnc(C(F)(F)F)n2)nn1-c1ncccc1Cl` [Example 108], the pest or weed control at 100 g/ha in data set [1] (setting [4]) and in data set [2] was 100% in each case. For the same molecule, in data set [3] (setting [5]), the chromatographic logP worked out at 4.01.

For `Cc1cc(C#N)cc(C(=O)NCc2cccc(S(F)(F)(F)(F)F)c2)c1NC(=O)c1cc(Cn2nnnc2C(F)(F)F)nn1-c1ncccc1Cl` [Example 68], the pest or weed control at 100 g/ha in data set [1] (setting [4]) and in data set [2] was 100% each time. The chromatographic logP in data set [3] (setting [5]) is 3.69.

Consider `Cc1cc(Cl)cc(C(=O)NC(C)c2ccc(Cl)c(Cl)c2)c1NC(=O)c1cc(Cn2nnc(C(F)(F)F)n2)nn1-c1ncccc1Cl` (stereo not drawn) [Example 142], for which the pest or weed control at 100 g/ha in data set [1] (setting [4]) and in data set [2] was 100% in each case. The chromatographic logP in data set [3] (setting [5]) came to 4.58.

Regarding `Cc1cc(Cl)cc(C(=O)NCc2cc(F)cc(F)c2F)c1NC(=O)c1cc(Cn2nnc(C(F)(F)F)n2)nn1-c1ncccc1Cl` [Example 109], the pest or weed control at 100 g/ha in data set [1] (setting [4]) and in data set [2] was 100% throughout. Moreover, the chromatographic logP in data set [3] (setting [5]) was 3.98.

Consider `Cc1cc(Cl)cc(C(=O)NCc2ccc(Cl)cc2Cl)c1NC(=O)c1cc(Cn2nnc(C(F)(F)F)n2)nn1-c1ncccc1Cl` [Example 92], for which the pest or weed control at 100 g/ha in data set [1] and in data set [2] was 100% in each case. In data set [3] (pH 2.7, log P), this molecule came in with a chromatographic logP of 4.41.

For the molecule `Cc1cc(Cl)cc(C(=O)NCc2cc(Cl)ccn2)c1NC(=O)c1cc(Cn2nnc(C(F)(F)F)n2)nn1-c1ncccc1Cl` [Example 232], the pest or weed control at 100 g/ha in data set [1] and in data set [2] was 100% throughout. The molecule further gave a chromatographic logP in data set [3] (pH 2.7, log P) of 3.45.

Take `Cc1cc(C#N)cc(C(=O)NC2COC2)c1NC(=O)c1cc(Cn2nnnc2C(F)(F)F)nn1-c1ncccc1Cl` [Example 12]: the pest or weed control at 100 g/ha in data set [1] and in data set [2] was 100% throughout. The same molecule returned a chromatographic logP in data set [3] (pH 2.7, log P) of 2.17.

`Cc1cc(C#N)cc(C(=O)NC(C)c2ccc(Cl)cc2)c1NC(=O)c1cc(Cn2nnc(C(F)(F)F)n2)nn1-c1ncccc1Cl` (stereo not drawn) [Example 67]: the pest or weed control at 100 g/ha in data set [1] (setting [4]) and in data set [2] was 100% throughout. The chromatographic logP in data set [3] (setting [5]) was 3.91.

Consider `Cc1cc(I)cc(C(=O)NCc2ccc(OC(F)F)cc2)c1NC(=O)c1cc(Cn2nnc(C(F)(F)C(F)(F)F)n2)nn1-c1ncccc1Cl` [Example 149], for which the pest or weed control at 100 g/ha in data set [1] (setting [4]) and in data set [2] was 100% throughout. Further, the chromatographic logP in data set [3] (setting [5]) came to 4.35.

With `Cc1cc(Cl)cc(C(=O)NCc2cccc(OC(F)(F)F)c2)c1NC(=O)c1cc(Cn2nnc(C(F)(F)F)n2)nn1-c1ncccc1Cl` [Example 104], the pest or weed control at 100 g/ha in data set [1] (setting [4]) and in data set [2] was 100% each time. Besides, in data set [3] (setting [5]), the chromatographic logP came out at 4.36.

On to `Cc1cc(C#N)cc(C(=O)NCc2ccccc2)c1NC(=O)c1cc(Cn2nc(C(F)(F)F)c(C(F)(F)F)n2)nn1-c1ncccc1Cl` [Example 136], for which the pest or weed control at 100 g/ha in data set [1] (setting [4]) and in data set [2] was 100% in each case. For the same molecule, the chromatographic logP in data set [3] (setting [5]) came to 4.15.

Consider `O=C(NCc1ccc(Cl)cc1)c1cc(Br)cc(Cl)c1NC(=O)c1cc(Cn2nnc(C(F)(F)F)n2)nn1-c1ncccc1Cl` [Example 205], for which the pest or weed control at 100 g/ha in data set [1] and in data set [2] was 100% each time. The molecule also registered a chromatographic logP in data set [3] (pH 2.7, log P) of 4.08.

Turning to `Cc1cc(C#N)cc(C(=O)NCc2cccc(S(F)(F)(F)(F)F)c2)c1NC(=O)c1cc(Cn2nnc(C(F)(F)F)n2)nn1-c1ncccc1Cl` [Example 63], the pest or weed control at 100 g/ha in data set [1] (setting [4]) and in data set [2] was 100% throughout. The chromatographic logP in data set [3] (setting [5]) came to 4.02.

In the case of `Cc1cc(I)cc(C(=O)NCc2ccccc2OC(F)(F)F)c1NC(=O)c1cc(Cn2nnc(C(F)(F)C(F)(F)F)n2)nn1-c1ncccc1Cl` [Example 146], the pest or weed control at 100 g/ha in data set [1] (setting [4]) and in data set [2] was 100% in each case. Further, in data set [3] (setting [5]), the chromatographic logP came out at 4.84.

In the case of `Cc1cc(Cl)cc(C(=O)NCc2cc(Cl)ccc2Cl)c1NC(=O)c1cc(Cn2nnc(C(F)(F)F)n2)nn1-c1ncccc1Cl` [Example 106], the pest or weed control at 100 g/ha in data set [1] and in data set [2] was 100% each time. In data set [3] (pH 2.7, log P), this molecule displayed a chromatographic logP of 4.39.

As for `Cc1cc(Cl)cc(C(=O)N[C@@H](C)c2ccc([N+](=O)[O-])cc2)c1NC(=O)c1cc(Cn2nnc(C(F)(F)F)n2)nn1-c1ncccc1Cl` [Example 129], the pest or weed control at 100 g/ha in data set [1] (setting [4]) and in data set [2] was 100% throughout. The chromatographic logP in data set [3] (setting [5]) is 3.86.

As to `Cc1ccc(Cl)c(C(=O)NCc2ccccc2Cl)c1NC(=O)c1cc(Cn2nnc(C(F)(F)F)n2)nn1-c1ncccc1Cl` [Example 196], the pest or weed control at 100 g/ha in data set [1] and in data set [2] was 100% throughout. Moreover, in data set [3] (pH 2.7, log P), the chromatographic logP stood at 3.64.

With `Cc1c(F)ccc(C(=O)NCc2ccccc2Cl)c1NC(=O)c1cc(Cn2nnc(C(F)(F)F)n2)nn1-c1ncccc1Cl` [Example 202], the pest or weed control at 100 g/ha in data set [1] and in data set [2] was 100% throughout. Also, the chromatographic logP in data set [3] (pH 2.7, log P) stood at 3.79.

`Cc1cc(Cl)cc(C(=O)NCc2ncc(C(F)(F)F)cc2Cl)c1NC(=O)c1cc(Cn2nnc(C(F)(F)F)n2)nn1-c1ncccc1Cl` [Example 230]: the pest or weed control at 100 g/ha in data set [1] (setting [4]) and in data set [2] was 100% throughout. Also, the chromatographic logP in data set [3] (setting [5]) worked out at 4.23.

For `Cc1cc(C#N)cc(C(=O)NCc2cccc(OC(F)F)c2)c1NC(=O)c1cc(Cn2nnc(C(F)(F)F)n2)nn1-c1ccccc1Cl` [Example 212], the pest or weed control at 100 g/ha in data set [1] (setting [4]) and in data set [2] was 100% throughout. In data set [3] (setting [5]), the chromatographic logP was 3.67.

Turning to `Cc1cc(Cl)cc(C(=O)Nc2ccc(Cl)cc2)c1NC(=O)c1cc(Cn2nnc(C(F)(F)F)n2)nn1-c1ncccc1Cl` [Example 73], the pest or weed control at 100 g/ha in data set [1] and in data set [2] was 100% throughout. In data set [3] (pH 2.7, log P), this molecule displayed a chromatographic logP of 4.17.

Turning to `Cc1cc(Cl)cc(C(=O)NCc2cc(Cl)cc(Cl)c2)c1NC(=O)c1cc(Cn2nnc(C(F)(F)F)n2)nn1-c1ncccc1Cl` [Example 94], the pest or weed control at 100 g/ha in data set [1] and in data set [2] was 100% throughout. The chromatographic logP in data set [3] (pH 2.7, log P) was 4.49.

On to `Cc1cc(Cl)cc(C(=O)NC(C)c2ccccc2C(F)(F)F)c1NC(=O)c1cc(Cn2nnc(C(F)(F)F)n2)nn1-c1ncccc1Cl` (stereo not drawn) [Example 123], for which the pest or weed control at 100 g/ha in data set [1] (setting [4]) and in data set [2] was 100% throughout. The chromatographic logP in data set [3] (setting [5]) is 4.35.

With `Cc1cc(F)cc(C(=O)NCc2cccc(OC(F)(F)F)c2)c1NC(=O)c1cc(Cn2nnc(C(F)(F)F)n2)nn1-c1ncccc1Cl` [Example 169], the pest or weed control at 100 g/ha in data set [1] (setting [4]) and in data set [2] was 100% throughout. In addition, the chromatographic logP in data set [3] (setting [5]) came out at 3.95.

Turning to `Cc1ccc(C(C)NC(=O)c2cc(Cl)cc(C)c2NC(=O)c2cc(Cn3nnc(C(F)(F)F)n3)nn2-c2ncccc2Cl)cc1` (stereo not drawn) [Example 114], the pest or weed control at 100 g/ha in data set [1] and in data set [2] was 100% throughout. Also, in data set [3] (pH 2.7, log P), the chromatographic logP turned out to be 4.24.

Consider `Cc1cc(C#N)cc(C(=O)NCc2ccc(OC(F)F)cc2)c1NC(=O)c1cc(Cn2nnc(C(F)(F)F)n2)nn1-c1ncccc1Cl` [Example 168], for which the pest or weed control at 100 g/ha in data set [1] (setting [4]) and in data set [2] was 100% in each case. Besides, the chromatographic logP in data set [3] (setting [5]) was 3.49.

For the molecule `Cc1cc(C#N)cc(C(=O)NCc2ccccc2OC(F)(F)F)c1NC(=O)c1cc(Cn2nnc(C(F)(F)F)n2)nn1-c1c(Cl)cccc1Cl` [Example 188], the pest or weed control at 100 g/ha in data set [1] (setting [4]) and in data set [2] was 100% throughout. In addition, the chromatographic logP in data set [3] (setting [5]) turned out to be 4.13.

Turning to `Cc1cc(Cl)cc(C(=O)NC2CCSCC2)c1NC(=O)c1cc(Cn2nnc(C(F)(F)F)n2)nn1-c1ncccc1Cl` [Example 56], the pest or weed control at 100 g/ha in data set [1] and in data set [2] was 100% throughout. In data set [3] (pH 2.7, log P), the chromatographic logP is 3.58.

Turning to `Cc1cc(C#N)cc(C(=O)NCc2ccccc2OC(F)(F)F)c1NC(=O)c1cc(Cn2nnc(C(F)(F)F)n2)nn1-c1ccccc1Cl` [Example 217], the pest or weed control at 100 g/ha in data set [1] (setting [4]) and in data set [2] was 100% each time. For the same molecule, the chromatographic logP in data set [3] (setting [5]) was 4.28.
